Measurements from ChEMBL document CHEMBL3046405, “Knockdown of several components of cytochrome P450 enzyme systems by RNA interference enhances the susceptibility of Helicoverpa armigera to fenvalerate” (2012).

Assays:
Type in all cases: functional
Helicoverpa armigera [1] = assay: Insecticidal activity against fenvalerate-resistant Helicoverpa armigera HDFR third-instar larvae injected with dsCYP6B7-313-1 dsRNA assessed as compound level per larva causing mortality after 36 hr
Helicoverpa armigera [2] = assay: Insecticidal activity against fenvalerate-resistant Helicoverpa armigera HDFR third-instar larvae assessed as compound level per larva causing mortality after 48 hr
Helicoverpa armigera [3] = assay: Potency index, ratio of LD50 for fenvalerate-resistant Helicoverpa armigera HDFR third-instar larvae injected with TE buffer to LD50 for fenvalerate-resistant Helicoverpa armigera HDFR third-instar larvae injected with dsCYP6B7-313-1 dsRNA plus dsCyt-b5-4 dsRNA after 12 hr
Helicoverpa armigera [4] = assay: Potency index, ratio of LD50 for fenvalerate-resistant Helicoverpa armigera HDFR third-instar larvae injected with TE buffer to LD50 for fenvalerate-resistant Helicoverpa armigera HDFR third-instar larvae injected with dsCYP6B7-313-1 dsRNA plus dsCPR-403-1 dsRNA and dsCyt-b5-4 dsRNA after 36 hr
Helicoverpa armigera [5] = assay: Insecticidal activity against fenvalerate-resistant Helicoverpa armigera HDFR third-instar larvae injected with dsCYP6B7-313-1 dsRNA plus dsCyt-b5-4 dsRNA assessed as compound level per larva causing mortality after 24 hr
Helicoverpa armigera [6] = assay: Insecticidal activity against fenvalerate-resistant Helicoverpa armigera HDFR third-instar larvae injected with dsCYP6B7-313-1 dsRNA plus dsCPR-403-1 dsRNA and dsCyt-b5-4 dsRNA assessed as compound level per larva causing mortality after 48 hr
Helicoverpa armigera [7] = assay: Insecticidal activity against fenvalerate-resistant Helicoverpa armigera HDFR third-instar larvae injected with dsCYP6B7-313-1 dsRNA plus dsCPR-403-1 dsRNA and dsCyt-b5-4 dsRNA assessed as compound level per larva causing mortality after 36 hr
Helicoverpa armigera [8] = assay: Potency index, ratio of LD50 for fenvalerate-resistant Helicoverpa armigera HDFR third-instar larvae injected with TE buffer to LD50 for fenvalerate-resistant Helicoverpa armigera HDFR third-instar larvae injected with dsCYP6B7-313-1 dsRNA plus dsCPR-403-1 dsRNA and dsCyt-b5-4 dsRNA after 48 hr
Helicoverpa armigera [9] = assay: Potency index, ratio of LD50 for fenvalerate-resistant Helicoverpa armigera HDFR third-instar larvae injected with TE buffer to LD50 for fenvalerate-resistant Helicoverpa armigera HDFR third-instar larvae injected with dsCYP6B7-313-1 dsRNA after 36 hr
Helicoverpa armigera [10] = assay: Insecticidal activity against fenvalerate-resistant Helicoverpa armigera HDFR third-instar larvae injected with TE buffer assessed as compound level per larva causing mortality after 48 hr
Helicoverpa armigera [11] = assay: Insecticidal activity against fenvalerate-resistant Helicoverpa armigera HDFR third-instar larvae injected with dsCYP6B7-313-1 dsRNA plus dsCyt-b5-4 dsRNA assessed as compound level per larva causing mortality after 48 hr
Helicoverpa armigera [12] = assay: Insecticidal activity against fenvalerate-resistant Helicoverpa armigera HDFR third-instar larvae injected with TE buffer assessed as compound level per larva causing mortality after 24 hr
Helicoverpa armigera [13] = assay: Insecticidal activity against fenvalerate-resistant Helicoverpa armigera HDFR third-instar larvae injected with dsCYP6B7-313-1 dsRNA assessed as compound level per larva causing mortality after 48 hr
Helicoverpa armigera [14] = assay: Insecticidal activity against fenvalerate-resistant Helicoverpa armigera HDFR third-instar larvae injected with TE buffer assessed as compound level per larva causing mortality after 36 hr
Helicoverpa armigera [15] = assay: Insecticidal activity against fenvalerate-resistant Helicoverpa armigera HDFR third-instar larvae injected with TE buffer assessed as compound level per larva causing mortality after 12 hr
Helicoverpa armigera [16] = assay: Potency index, ratio of LD50 for fenvalerate-resistant Helicoverpa armigera HDFR third-instar larvae injected with TE buffer to LD50 for fenvalerate-resistant Helicoverpa armigera HDFR third-instar larvae injected with dsCYP6B7-313-1 dsRNA plus dsCyt-b5-4 dsRNA after 48 hr
Helicoverpa armigera [17] = assay: Insecticidal activity against fenvalerate-resistant Helicoverpa armigera HDFR third-instar larvae injected with dsCYP6B7-313-1 dsRNA assessed as compound level per larva causing mortality after 12 hr
Helicoverpa armigera [18] = assay: Insecticidal activity against fenvalerate-resistant Helicoverpa armigera HDFR third-instar larvae without dsRNA injection assessed as compound level per larva causing mortality after 36 hr
Helicoverpa armigera [19] = assay: Insecticidal activity against fenvalerate-resistant Helicoverpa armigera HDFR third-instar larvae injected with dsCYP6B7-313-1 dsRNA plus dsCPR-403-1 dsRNA and dsCyt-b5-4 dsRNA assessed as compound level per larva causing mortality after 24 hr
Helicoverpa armigera [20] = assay: Potency index, ratio of LD50 for fenvalerate-resistant Helicoverpa armigera HDFR third-instar larvae injected with TE buffer to LD50 for fenvalerate-resistant Helicoverpa armigera HDFR third-instar larvae injected with dsCYP6B7-313-1 dsRNA plus dsCPR-403-1 after 48 hr
Helicoverpa armigera [21] = assay: Insecticidal activity against fenvalerate-resistant Helicoverpa armigera HDFR third-instar larvae injected with dsCYP6B7-313-1 dsRNA plus dsCPR-403-1 dsRNA assessed as compound level per larva causing mortality after 12 hr
Helicoverpa armigera [22] = assay: Potency index, ratio of LD50 for fenvalerate-resistant Helicoverpa armigera HDFR third-instar larvae injected with TE buffer to LD50 for fenvalerate-resistant Helicoverpa armigera HDFR third-instar larvae injected with dsCYP6B7-313-1 dsRNA after 24 hr
Helicoverpa armigera [23] = assay: Insecticidal activity against fenvalerate-resistant Helicoverpa armigera HDFR third-instar larvae injected with dsCYP6B7-313-1 dsRNA plus dsCPR-403-1 dsRNA and dsCyt-b5-4 dsRNA assessed as compound level per larva causing mortality after 12 hr
Helicoverpa armigera [24] = assay: Potency index, ratio of LD50 for fenvalerate-resistant Helicoverpa armigera HDFR third-instar larvae injected with TE buffer to LD50 for fenvalerate-resistant Helicoverpa armigera HDFR third-instar larvae injected with dsCYP6B7-313-1 dsRNA after 12 hr
Helicoverpa armigera [25] = assay: Insecticidal activity against fenvalerate-resistant Helicoverpa armigera HDFR third-instar larvae injected with dsCYP6B7-313-1 dsRNA plus dsCyt-b5-4 dsRNA assessed as compound level per larva causing mortality after 12 hr
Helicoverpa armigera [26] = assay: Insecticidal activity against fenvalerate-resistant Helicoverpa armigera HDFR third-instar larvae without dsRNA injection assessed as compound level per larva causing mortality after 24 hr
Helicoverpa armigera [27] = assay: Insecticidal activity against fenvalerate-resistant Helicoverpa armigera HDFR third-instar larvae injected with dsCYP6B7-313-1 dsRNA plus dsCPR-403-1 dsRNA assessed as compound level per larva causing mortality after 48 hr
Helicoverpa armigera [28] = assay: Potency index, ratio of LD50 for fenvalerate-resistant Helicoverpa armigera HDFR third-instar larvae injected with TE buffer to LD50 for fenvalerate-resistant Helicoverpa armigera HDFR third-instar larvae injected with dsCYP6B7-313-1 dsRNA plus dsCPR-403-1 after 12 hr
Helicoverpa armigera [29] = assay: Potency index, ratio of LD50 for fenvalerate-resistant Helicoverpa armigera HDFR third-instar larvae injected with TE buffer to LD50 for fenvalerate-resistant Helicoverpa armigera HDFR third-instar larvae injected with dsCYP6B7-313-1 dsRNA plus dsCPR-403-1 after 24 hr
Helicoverpa armigera [30] = assay: Resistance index, ratio of LD50 for fenvalerate-resistant Helicoverpa armigera HDFR third-instar larvae to LD50 for fenvalerate-susceptible Helicoverpa armigera third-instar larvae
Helicoverpa armigera [31] = assay: Insecticidal activity against fenvalerate-resistant Helicoverpa armigera HDFR third-instar larvae injected with dsCYP6B7-313-1 dsRNA plus dsCPR-403-1 dsRNA assessed as compound level per larva causing mortality after 24 hr
Helicoverpa armigera [32] = assay: Insecticidal activity against fenvalerate-resistant Helicoverpa armigera HDFR third-instar larvae injected with dsCYP6B7-313-1 dsRNA assessed as compound level per larva causing mortality after 24 hr
Helicoverpa armigera [33] = assay: Potency index, ratio of LD50 for fenvalerate-resistant Helicoverpa armigera HDFR third-instar larvae injected with TE buffer to LD50 for fenvalerate-resistant Helicoverpa armigera HDFR third-instar larvae injected with dsCYP6B7-313-1 dsRNA after 48 hr
Helicoverpa armigera [34] = assay: Insecticidal activity against fenvalerate-resistant Helicoverpa armigera HDFR third-instar larvae injected with dsCYP6B7-313-1 dsRNA plus dsCPR-403-1 dsRNA assessed as insect mortality at 4 to 16 ug/larva after 48 hr (fenvalerate alone control = 29.1 to 50.0%)
Helicoverpa armigera [35] = assay: Insecticidal activity against fenvalerate-susceptible Helicoverpa armigera third-instar larvae assessed as compound level per larva causing mortality after 48 hr
Helicoverpa armigera [36] = assay: Potency index, ratio of LD50 for fenvalerate-resistant Helicoverpa armigera HDFR third-instar larvae injected with TE buffer to LD50 for fenvalerate-resistant Helicoverpa armigera HDFR third-instar larvae injected with dsCYP6B7-313-1 dsRNA plus dsCPR-403-1 dsRNA and dsCyt-b5-4 dsRNA after 24 hr
Helicoverpa armigera [37] = assay: Insecticidal activity against fenvalerate-resistant Helicoverpa armigera HDFR third-instar larvae injected with dsCYP6B7-313-1 dsRNA plus dsCyt-b5-4 dsRNA assessed as compound level per larva causing mortality after 36 hr
Helicoverpa armigera [38] = assay: Insecticidal activity against fenvalerate-resistant Helicoverpa armigera HDFR third-instar larvae injected with dsCYP6B7-313-1 dsRNA plus dsCPR-403-1 dsRNA assessed as compound level per larva causing mortality after 36 hr
Helicoverpa armigera [39] = assay: Insecticidal activity against fenvalerate-resistant Helicoverpa armigera HDFR third-instar larvae without dsRNA injection assessed as compound level per larva causing mortality after 12 hr
Helicoverpa armigera [40] = assay: Potency index, ratio of LD50 for fenvalerate-resistant Helicoverpa armigera HDFR third-instar larvae injected with TE buffer to LD50 for fenvalerate-resistant Helicoverpa armigera HDFR third-instar larvae injected with dsCYP6B7-313-1 dsRNA plus dsCPR-403-1 after 36 hr
Helicoverpa armigera [41] = assay: Potency index, ratio of LD50 for fenvalerate-resistant Helicoverpa armigera HDFR third-instar larvae injected with TE buffer to LD50 for fenvalerate-resistant Helicoverpa armigera HDFR third-instar larvae injected with dsCYP6B7-313-1 dsRNA plus dsCPR-403-1 dsRNA and dsCyt-b5-4 dsRNA after 12 hr
Helicoverpa armigera [42] = assay: Insecticidal activity against fenvalerate-resistant Helicoverpa armigera HDFR third-instar larvae injected with dsCYP6B7-313-1 dsRNA plus dsCPR-403-1 dsRNA and dsCyt-b5-4 dsRNA assessed as insect mortality at 4 to 16 ug/larva after 48 hr (fenvalerate alone control = 29.1 to 50.0%)
Helicoverpa armigera [43] = assay: Potency index, ratio of LD50 for fenvalerate-resistant Helicoverpa armigera HDFR third-instar larvae injected with TE buffer to LD50 for fenvalerate-resistant Helicoverpa armigera HDFR third-instar larvae injected with dsCYP6B7-313-1 dsRNA plus dsCyt-b5-4 dsRNA after 36 hr
Helicoverpa armigera [44] = assay: Insecticidal activity against fenvalerate-resistant Helicoverpa armigera HDFR third-instar larvae injected with dsCYP6B7-313-1 dsRNA assessed as insect mortality at 4 to 16 ug/larva after 48 hr (fenvalerate alone control = 29.1 to 50.0%)
Helicoverpa armigera [45] = assay: Potency index, ratio of LD50 for fenvalerate-resistant Helicoverpa armigera HDFR third-instar larvae injected with TE buffer to LD50 for fenvalerate-resistant Helicoverpa armigera HDFR third-instar larvae injected with dsCYP6B7-313-1 dsRNA plus dsCyt-b5-4 dsRNA after 24 hr
Helicoverpa armigera [46] = assay: Insecticidal activity against fenvalerate-resistant Helicoverpa armigera HDFR third-instar larvae injected with dsCYP6B7-313-1 dsRNA plus dsCyt-b5-4 dsRNA assessed as insect mortality at 4 to 16 ug/larva after 48 hr (fenvalerate alone control = 29.1 to 50.0%)
Helicoverpa armigera [47] = assay: Insecticidal activity against fenvalerate-resistant Helicoverpa armigera HDFR third-instar larvae without dsRNA injection assessed as compound level per larva causing mortality after 48 hr

CC(C)C(C(=O)OC(C#N)c1cccc(Oc2ccccc2)c1)c1ccc(Cl)cc1 (configuration not stated) [FENVALERATE]
LD50 (Helicoverpa armigera [1]): 16.5 µg
LD50 (Helicoverpa armigera [2]): 16.13 µg
Ratio (Helicoverpa armigera [3]): 2.5
Ratio (Helicoverpa armigera [4]): 3
LD50 (Helicoverpa armigera [5]): 14.5 µg
LD50 (Helicoverpa armigera [6]): 6.7 µg
LD50 (Helicoverpa armigera [7]): 8.6 µg
Ratio (Helicoverpa armigera [8]): 3.2
Ratio (Helicoverpa armigera [9]): 1.6
LD50 (Helicoverpa armigera [10]): 21.5 µg
LD50 (Helicoverpa armigera [11]): 6.9 µg
LD50 (Helicoverpa armigera [12]): 35.2 µg
LD50 (Helicoverpa armigera [13]): 10.7 µg
LD50 (Helicoverpa armigera [14]): 25.6 µg
LD50 (Helicoverpa armigera [15]): 46.8 µg
Ratio (Helicoverpa armigera [16]): 3.1
LD50 (Helicoverpa armigera [17]): 23.9 µg
LD50 (Helicoverpa armigera [18]): 26.1 µg
LD50 (Helicoverpa armigera [19]): 10.2 µg
Ratio (Helicoverpa armigera [20]): 2.4
LD50 (Helicoverpa armigera [21]): 16.8 µg
Ratio (Helicoverpa armigera [22]): 1.8
LD50 (Helicoverpa armigera [23]): 12.6 µg
Ratio (Helicoverpa armigera [24]): 2
LD50 (Helicoverpa armigera [25]): 19 µg
LD50 (Helicoverpa armigera [26]): 35.7 µg
LD50 (Helicoverpa armigera [27]): 8.9 µg
Ratio (Helicoverpa armigera [28]): 2.8
Ratio (Helicoverpa armigera [29]): 2.9
Ratio (Helicoverpa armigera [30]): 164
LD50 (Helicoverpa armigera [31]): 12.3 µg
LD50 (Helicoverpa armigera [32]): 19.7 µg
Ratio (Helicoverpa armigera [33]): 2
mortality (Helicoverpa armigera [34]): 40.7%
LD50 (Helicoverpa armigera [35]): 0.0982 µg
Ratio (Helicoverpa armigera [36]): 3.5
LD50 (Helicoverpa armigera [37]): 9.9 µg
LD50 (Helicoverpa armigera [38]): 8.9 µg
LD50 (Helicoverpa armigera [39]): 48.8 µg
Ratio (Helicoverpa armigera [40]): 2.9
Ratio (Helicoverpa armigera [41]): 3.7
mortality (Helicoverpa armigera [42]): 44.4%
Ratio (Helicoverpa armigera [43]): 2.6
mortality (Helicoverpa armigera [44]): 38.8%
Ratio (Helicoverpa armigera [45]): 2.4
mortality (Helicoverpa armigera [46]): 50%
LD50 (Helicoverpa armigera [47]): 23.1 µg
